This is an account of results in patent US20160024083A1, “COMPOUNDS AND METHODS FOR TREATING CANCERS” (HEALTH RESEARCH, INC., priority 2013, published 2016).

Where only a bound is given, the exact number is not on record here.

The test system of one data set is Mdm2. In words: Mdm2 accumulation, Western Blot. Type of data set: cell-based. As to conditions: MCF7 cells with functionally inactive p53 (R175H, GSE56). The protocol: Results of Western Blot analysis: CWR22r cells were treated with 1 uM c52 for indicated time intervals.
(§1) Also tested was the hypothesis that degradation of androgen receptor in prostate and breast cancer cells may be due to p53 induced accumulation of mdm2, which is also ubiquitin ligase for androgen receptor (FIG. 15). p53 was inactivated in several cell lines using different approaches what led to the blockade of mdm2 accumulation after c52 treatment. However androgen receptor was still degraded in c52 treated cells even in the absence of p53 activation and mdm2 accumulation (FIG. 16).
(Immunoblotting shows a protein as a band on a membrane.)

In a further data set the test system is CWR22R. In words: cells. The data set is classed as cell-based. On the procedure:
FIG. 21. Toxicity of PLA1055 to CWR22R cells in vitro depending on time of incubation. PLA1055 was added to CWR22R in full range of concentrations for the periods of time shown on the right. After that drug containing media were changed for drug free and survival of cells was detected at 72 hours after start of treatment using Alamar Blue assay (Promega).
This example provides a table (below) of the compounds of the present disclosure and their activity towards four different cell lines (i.e., CWR22R, HeLa, PC3, and MDA-MB-231). The IC50 for inhibition of growth is divided into 4 categories: A<1 μM, B 1-5 μM, C 5-20 μM, D>20 μM.
All compounds were tested for toxicity using 4 cells lines, target cells—CWR22R and non-target cells, Hela, PC3 and MDA-MB-231 (FIGS. 1A-F).
(§2) LC50 data of in vitro 72 hours cytotoxicity assay are included in this table for comparison.
An in vitro experiment was run to detect the concentration of PLA1055 needed to kill all tumor cells in vitro (LC90) during different periods of time (30 minutes-72 hours, FIG. 21)).

The test system of another data set is androgen receptor. In words: Androgen receptor level / degradation in cells. Type of data set: cell-based. To be noted: CWR22r or MCF7 cells with inhibited p53 activity.
From the text: as §1

Data set [1] can be described thus: Plasma concentration (PK) after intravenous and intraperitoneal injections. The data set is classed as in vivo. As to conditions: for plasma concentration time course: after IV and IP injections; for plasma concentration time course / bioavailability through IP injection: 50-100 mg/kg; for bioavailability through IP injection: plasma concentrations similar or even higher after IP than IV.

The nature of data set [2]: Tissue drug concentrations (tumor, liver, plasma) in treated CWR22R tumor-bearing mice. The data set is classed as in vivo. The protocol:
(§3) We tested these compounds in an in vivo efficacy experiment using model of CRPC in SCID mice, CWR22R. Two compounds, PLA1079 and 1125, which were synthesized in the amount of 500 mg were tested in full scale experiment with either 5 IV daily injections or 10 IP daily injections. After 5 IP or IV injections intra-tumor concentration of the compounds were measured in few mice from this experiment.
Two other compounds, PLA1148 and 1098 (PK testing in FIGS. 8 and 9) were tested in a small scale efficacy experiment. Upon PK testing of the compound PLA1148 one mouse was injected twice with 10 min interval. However the concentration of the drug in plasma of this mouse was not twice, but >4 times higher than in mice injected once. […] It was decided to utilize this observation in an attempt to get higher plasma and tumor concentration of both compounds. Therefore in the pilot efficacy experiment in the same model of CWR22R cells mice were treated with 2 IP injections with 10 minute interval. Treatment with PLA1098 was carried out for two days. […] However this is so far the highest concentration found in tumor. […]
as §2

In a further data set the test system is CWR22R tumors. In words: In vivo efficacy, subcutaneous xenografts of CWR22R cells in SCID mice. The protocol: as §3
(§4) Two other compounds, PLA1148 and 1098 (PK testing in FIGS. 8 and 9) were tested in a small scale efficacy experiment. Upon PK testing of the compound PLA1148 one mouse was injected twice with 10 min interval. However the concentration of the drug in plasma of this mouse was not twice, but >4 times higher than in mice injected once. […] It was decided to utilize this observation in an attempt to get higher plasma and tumor concentration of both compounds. Therefore in the pilot efficacy experiment in the same model of CWR22R cells mice were treated with 2 IP injections with 10 minute interval. Treatment with PLA1098 was carried out for two days. […] However this is so far the highest concentration found in tumor.
Pilot efficacy experiments were run for compounds: PLA1163, PLA1148 using the same model of subcutaneous xenografts of CWR22R cells in SCID mice (FIGS. 18 and 19).

Another data set concerns p21. In words: p21 expression upon treatment. The data set is classed as cell-based. To be noted: sensitive cells.
The subject of a further data set is Caveolin 1. In words: Caveolin 1 expression in sensitive versus resistant cells. The data set is classed as cell-based. As to conditions: MDA MB 231 and MCF7 cells. On the procedure:
FIG. 12. Expression of Caveolinl in sensitive versus resistant cells. Caveolinl is expressed in resistant MDA MB 231 cells, but not in sensitive MCF7 cells.
Analysis of gene expression among 50 breast cancer cell lines differed in sensitivity as well as shRNA screening of resistant breast cancer cells identified Calveolin (FIG. 11) as a potential gene associated with resistance to c52. mRNA expression of Calveolin1 was tested among our sensitive and resistant cells as well as in response to c52 treatment. As expected Calveolin1 was expressed only in resistant cells, however it was not changed upon c52 treatment (FIG. 12). […] Calveolin1 was cloned in lentiviral expression vector and are now testing if overexpression of Calveolin1 in sensitive cells will make them resistant to c52 treatment.

The test system of data set [3] is presumable target protein. As to the kind of experiment: DARTS (Drug Affinity Responsive Target Stability) assay in CWR22r lysates. Type of data set: binding. As to conditions: protein lysates from CWR22r cells. On the procedure: FIG. 24. DARTS (Drug Affinity Responsive Target Stability) assay was performed using c52 and PLA1118. According to this assay these compounds are capable of protecting presumable target protein from protease degradation. Protein lysates from sensitive CWR22r cells were incubated with or without the drug and subsequently digested with the indicated concentration of pronase. A. c52 was used (lane T-treated, M-marker) with indicated concentrations of pronase; ability of c52 to protect its target from protease cleavage was judged based on presence of protein band in the treated lane vs the untreated (UT) control.
Target identification through affinity chromatography and sensitivity to proteolysis methods was undertaken. […] These bands were excised from gel and sent for protein sequencing. (FIG. 24).

The nature of data set [4]: Toxicity / side effects in treated mice. Type of data set: in vivo. The protocol:
as §4
This compound may be also potentially promising.

A short description of data set [5]: Solubility for in vivo administration. The data set is classed as physicochemical. As to conditions: tested for PK using IP injection of the drug in suspension.
Setting [6] is: one mouse, 24 hours after injections.

Take `CC(=O)c1ccc2c(c1)c1cc(C(C)=O)ccc1n2CCNC(C)C` [CBL 137, reference compound]: the Mdm2 level result with Mdm2 is reported as “Mdm2 is no longer overexpressed”.
In the data set on CWR22R, `CCCn1c2ccccc2c2cc(-c3nnco3)ccc21` [PLA1079] returned a CC50 of 120 nM. For the same molecule, the AR level result in the data set with androgen receptor was “AR is being degraded”. In addition, in data set [1], the “plasma concentration time course” value is reported as “fast reduction of concentration during the first hour” and the “bioavailability through IP injection” value is “very high”. In addition, the “Tumor concentration” value in [2] (100 mg/kg, IP/IV) was 24 to 48 nM. Besides, the in vivo efficacy entry in the data set with CWR22R tumors (CWR22R in SCID mice, 5 IV daily injections or 10 IP daily injections) is given as “absence of in vivo efficacy”. For the same molecule, in the data set on p21, the p21 expression result is recorded as “overexpression of p21 in sensitive cells”. For the same molecule, the Mdm2 level result in the data set on Mdm2 is listed as “Mdm2 is no longer overexpressed”. Moreover, the “Caveolin1 expression upon treatment” value in the data set on Caveolin 1 is “did not change levels of Caveolinl expression”.
`CCCn1c2ccccc2c2c3c(ccc21)C(=O)N(C)C3` [PLA1098]: half-maximal cytotoxicity in the data set with CWR22R (CC50) was put at 40 nM. In data set [1], the “plasma concentration time course” value is on record as “fast reduction of concentration during the first hour” and the “bioavailability through IP injection” value is reported as “very high”. In addition, in [2] (100 mg/kg, IP), the “Liver” value amounted to 0 nM and the “Tumor concentration” value lay in the range of 23 to 25 nM. In addition, the Intratumor concentration in [2] (2 tested tumors, 24 hours after last injection) is recorded as 25 nM. Besides, in [2] (24 hours after last injection), the compound in liver result is given as “no detectable” and the compound in plasma entry is recorded as “no detectable”. In addition, the “tumor volume and tumor weight vs vehicle control” value in the data set with CWR22R tumors (CWR22R, 2 IP injections with 10 minute interval for two days, 12 days after treatment) is “certain reduction of tumor volume and tumor weigh in the 1098 treated group vs vehicle control, but not statistically significant”. In addition, in the data set on CWR22R tumors (summary statement), the in vivo efficacy entry was “evidence of in vivo efficacy”. For the same molecule, the “protection of target protein from pronase degradation” value in [3] was “protected their targets from degradation”. The “side effects during treatment” value in data set [4] (2 IP injections with 10 minute interval, two days) is “no signs of side effects”. In addition, the signs of toxicity result in data set [4] (summary statement) is given as “without any signs of toxicity”.
In the case of `CCCn1c2ccccc2c2c3cc[nH]c(=O)c3ccc21` [PLA1099], the solubility result in data set [5] is “poorly soluble”.
Consider `CCCn1c2ccccc2c2cc(S(C)(=O)=O)ccc21` [PLA1118], for which, in [3], the “protection of target protein from pronase degradation” value is “faintly”.
Turning to `O=c1[nH]ccc2c1ccc1c2c2ccccc2n1CCCF` [PLA1121], the solubility result in data set [5] was “poorly soluble”.
Turning to `O=C1NCCc2c1ccc1c2c2ncccc2n1CCCF` [PLA1148], in data set [1], the “plasma concentration time course” value is reported as “fast reduction of concentration during the first hour” and the “bioavailability through IP injection” value is listed as “very high”. Further, in data set [1] (two injections with 10 min interval), the “plasma concentration of mouse injected twice versus mice injected once” value is on record as above 4 times. In addition, in data set [2] (50 mg/kg, IP), the “Liver” value came to 50 nM and the “Tumor concentration” value was 0 to 90 nM. Also, in data set [2] (48 hours after treatment), the Tumor concentration was 84 nM and the liver concentration worked out at 49 nM. Also, the plasma concentration entry in data set [2] (48 hours after treatment, compared with 24 hours (8.5 nM)) is given as “The same plasma concentration”. For the same molecule, in [2] (setting [6]), the drug in liver entry is given as “no drug detected”, the drug in tumor entry is listed as “no drug detected” and the plasma concentration is given as 8.5 nM. Further, in the data set with CWR22R tumors (CWR22R, two mice), the “tumors of mice that died on the 5th day” value is “almost undetectable tumors”. In data set [4] (2 IP injections with 10 minute interval, one day, symptoms suggested acute liver failure), the acute toxicity result is recorded as “acute toxicity developed quickly after injection”. In data set [4] (after one day of injections), the mortality is 2 mice died next day and 3 other during next 5 days.
Regarding `O=C1NCCOc2c1ccc1c2c2ccccc2n1CCCF` [PLA1163], in the data set with CWR22R, the CC50 worked out at 200 nM. In data set [2] (40 mg/kg, IP), the “Liver” value is 307 nM and the “Tumor concentration” value fell in the range of 4 to 10 nM. In data set [5], the solubility result is listed as “poorly soluble”.

In general, CC50 refers to the concentration at which the toxic effect on the cells reaches its halfway point.
